Data reported in patent publication US20060199966A1, “Indol-2-amides as glycogen phosphorylase inhibitors” (AstraZeneca AB, priority 2003, published 2006).
Converted amounts (≈) assume the structure as drawn.

Assays:
[1] = test system: conscious dogs; settings: following a glucagon challenge; cited from earlier work
[2] = test system: hepatocytes; settings: cited from earlier work; for glucose output: glucagon stimulated
[3] = test system: db/db and ob/ob mice; settings: dose related; cited from earlier work
[4] = target: T1, Human recombinant liver glycogen phosphorylase a (hrl GPa) (Homo sapiens, UniProt P06737); assay: Glycogen phosphorylase inhibition, multienzyme coupled assay; type: biochemical; settings: hrl GPa 20 nM, 6 hours at 30° C.
T1 sequence (P06737 1-847): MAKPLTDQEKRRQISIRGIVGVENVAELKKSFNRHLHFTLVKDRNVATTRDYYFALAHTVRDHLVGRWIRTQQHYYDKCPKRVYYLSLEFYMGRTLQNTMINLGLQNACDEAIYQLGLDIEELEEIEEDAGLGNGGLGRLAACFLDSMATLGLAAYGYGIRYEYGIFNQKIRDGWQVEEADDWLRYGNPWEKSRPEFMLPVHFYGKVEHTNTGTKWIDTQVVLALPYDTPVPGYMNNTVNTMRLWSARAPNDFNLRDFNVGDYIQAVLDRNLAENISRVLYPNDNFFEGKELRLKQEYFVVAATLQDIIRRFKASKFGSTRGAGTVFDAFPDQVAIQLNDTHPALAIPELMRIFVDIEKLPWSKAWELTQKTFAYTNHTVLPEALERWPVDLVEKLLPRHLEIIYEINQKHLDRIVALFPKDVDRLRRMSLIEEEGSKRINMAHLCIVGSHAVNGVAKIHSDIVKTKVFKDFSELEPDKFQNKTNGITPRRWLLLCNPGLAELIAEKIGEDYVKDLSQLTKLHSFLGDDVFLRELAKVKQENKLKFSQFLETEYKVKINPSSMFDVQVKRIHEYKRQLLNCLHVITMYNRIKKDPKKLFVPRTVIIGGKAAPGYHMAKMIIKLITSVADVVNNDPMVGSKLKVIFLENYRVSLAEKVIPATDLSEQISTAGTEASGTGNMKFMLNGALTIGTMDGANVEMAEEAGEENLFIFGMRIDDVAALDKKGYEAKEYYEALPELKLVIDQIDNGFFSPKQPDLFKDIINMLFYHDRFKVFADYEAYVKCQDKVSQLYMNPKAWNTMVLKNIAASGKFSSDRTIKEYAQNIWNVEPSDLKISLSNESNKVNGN
Description: The activity of the compounds is alternatively determined by measuring the inhibitory effect of the compounds on glycogen degradation, the production of glucose-1-phosphate from glycogen is monitored by the multienzyme coupled assay, as described in EP 0 846 464 A2, general method of Pesce et al (Pesce, M A, Bodourian, S H, Harris, R C, and Nicholson, J F (1977) Clinical Chemistry 23, […]). The reactions were in 384 well microplate format in a volume of 50 μl. The change in fluorescence due to the conversion of the co-factor NAD to NADH is measured at 340 nm excitation, 465 nm emission in a Tecan Ultra Multifunctional Microplate Reader. The reaction is in 50 mM […], 3.5 mM KH2PO4, 2.5 mM MgCl2, 2.5 mM ethylene glycol-bis(b-aminoethyl ether) N,N,N,′N′-tetraacetic acid, 100 mM KCl, 8 mM D-(+)-glucose pH7.2, containing 0.5 mM dithiothreitol, the assay buffer solution. Human recombinant liver glycogen phosphorylase a (hrl GPa) 20 nM is pre-incubated in assay buffer solution with 6.25 mM NAD, 1.25 mg type E1 glycogen at 1.25 mg ml^−1 the reagent buffer, for 30 minutes. […] The non-inhibited activity of GPa is measured in the presence of 10 μl 5% DMSO in assay buffer solution and maximum inhibition measured in the presence of 5 mgs ml^−1 N-ethylmaleimide. […] Relative Fluoresence Units (RFUs) are measured at 340 nm excitation, 465 nm emission. […]

[5] = Thermodynamic solubility; type: physicochemical; settings: phosphate buffer, pH 7.4, aqueous buffer, thermodynamic from solid, 0.1 M phosphate at pH7.4 for 24 hours
Description: The thermodynamic solubility data for the compounds of the invention as given above may be measured by agitating the compound in 0.1 M phosphate at pH7.4 for 24 hours, then analysis of the supernatant (for example by LCUV/MS) using a solution (for example in DMSO) of known concentration as the calibrant.

| SMILES | glucagon stimulated glycogenolysis [2] | glucose output [2] | plasma glucose concentration [3] | IC50 [4] [nM] | solubility at 24 h [5] [µM] | other results |
| --- | --- | --- | --- | --- | --- | --- |
| CCN1C(C)=C(C(=O)OC(C)C)C(c2ccccc2Cl)C2=C1COC2=O (stereo not drawn) [Bay R 3401] | – | – | – | – | – | arterial plasma glucose [1]: reduced significantly; hepatic glucose output [1]: reduced significantly |
| CN(C)C(=O)[C@H](O)[C@H](Cc1ccccc1)NC(=O)c1cc2cc(Cl)ccc2[nH]1 [CP91149] | reduce | reduce | reduced, in a dose related manner | – | – | – |
| O=C(N[C@@H](Cc1ccc(F)cc1)C(=O)N1CCC(O)CC1)c1cc2cc(Cl)ccc2[nH]1 [CP320626] | reduce | reduce | reduced, in a dose related manner | – | – | – |
| CN(C(=O)[C@@H](N)CO)[C@@H]1c2ccccc2C[C@H]1NC(=O)c1cc2cc(Cl)ccc2[nH]1.Cl [Example 2, 5-Chloro-N-{(1R,2R)-1-[methyl(seryl)amino]-2,3-dihydro-1H-inden-2-yl}-1H-indole-2-carboxamide hydrochloride] | – | – | – | 500 | 173 | – |
| CN(C(=O)[C@H](O)CO)[C@@H]1c2ccccc2C[C@H]1NC(=O)c1cc2cc(Cl)ccc2[nH]1 [Example 19, 5-Chloro-N-{(1R,2R)-1-[[(2R)-2,3-dihydroxypropanoyl](methyl)amino]-2,3-dihydro-1H-inden-2-yl}-1H-indole-2-carboxamide] | – | – | – | 110 | 119 (≈ 50.9 µg/mL) | – |
